# Data as given in patent US8377984B2, “Substituted gamma lactams as therapeutic agents” (Allergan, Inc., priority 2008, dated 2013).
# Experiments:
# normotensive dogs = assay: Ocular surface hyperemia (OSH) in normotensive dogs; type: in vivo; details: 0.003%
# Experimental: In Vivo Data (S)-5-(3-(1-(4-hexylphenyl)-5-oxopyrrolidin-2-yl)propyl)thiophene-2-carboxylic acid 2-hydroxyethyl ester (3) was tested in normotensive dogs at 0.003%, dosing once daily for 5 days. The maximum intraocular pressure (IOP) decrease from baseline was 5.9 mmHg (36%) at 54 h; the maximum ocular surface hyperemia (OSH) score was 1.1 at 74 h. This compound was also tested in laser-induced hypertensive monkeys, using one single day dose. At 0.003%, the maximum IOP decrease from baseline was 17 mmHg (44%) at 6 h.
# (S)-5-(3-(1-(4-hexylphenyl)-5-oxopyrrolidin-2-yl)propyl)thiophene-2-carboxylic acid (9) was tested in normotensive dogs at 0.003%, dosing once daily for 5 days. The maximum intraocular pressure (IOP) decrease from baseline was 4.7 mmHg (29%) at 6 h; the maximum ocular surface hyperemia (OSH) score was 1.9 at 76 h. This compound was also tested in laser-induced hypertensive monkeys, using one single day dose. At 0.003%, the maximum IOP decrease from baseline was 9 mmHg (23%) at 6 h.
# (S)-5-(3-(1-(4-hexylphenyl)-5-oxopyrrolidin-2-yl)propyl)thiophene-2-carboxylic acid isopropyl ester was tested in normotensive dogs at 0.003%, dosing once daily for 4 days. The maximum intraocular pressure (IOP) decrease from baseline was 3.9 mmHg (24%) at 30 h; the maximum ocular surface hyperemia (OSH) score was 0.7 at 28 h. This compound was also tested in laser-induced hypertensive monkeys, using one single day dose. At 0.003%, the maximum IOP decrease from baseline was 12 mmHg (28%) at 6 h.
# EP2 [1] = target: T1, EP2 (Homo sapiens, UniProt P43116); assay: EP2 flipr; type: cell-based
# T1 sequence (P43116 whole entry): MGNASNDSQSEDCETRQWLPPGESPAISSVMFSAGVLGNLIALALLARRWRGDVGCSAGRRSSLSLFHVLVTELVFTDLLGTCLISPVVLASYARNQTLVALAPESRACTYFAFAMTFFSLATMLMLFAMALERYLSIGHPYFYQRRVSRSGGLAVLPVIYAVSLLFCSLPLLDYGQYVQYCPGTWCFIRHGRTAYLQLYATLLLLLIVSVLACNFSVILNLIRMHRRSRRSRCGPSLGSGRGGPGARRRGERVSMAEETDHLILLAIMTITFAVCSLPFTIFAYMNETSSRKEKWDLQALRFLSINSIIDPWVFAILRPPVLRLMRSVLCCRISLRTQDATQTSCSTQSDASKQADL
# EP2 [2] = target: T1, EP2; assay: EP2 cAMP; type: cell-based
# EP2 [3] = target: T1, EP2; assay: EP2 binding (Ki)
# EP4 [4] = target: T2, EP4 (Homo sapiens, UniProt P35408); assay: EP4 flipr; type: cell-based
# T2 sequence (P35408 whole entry): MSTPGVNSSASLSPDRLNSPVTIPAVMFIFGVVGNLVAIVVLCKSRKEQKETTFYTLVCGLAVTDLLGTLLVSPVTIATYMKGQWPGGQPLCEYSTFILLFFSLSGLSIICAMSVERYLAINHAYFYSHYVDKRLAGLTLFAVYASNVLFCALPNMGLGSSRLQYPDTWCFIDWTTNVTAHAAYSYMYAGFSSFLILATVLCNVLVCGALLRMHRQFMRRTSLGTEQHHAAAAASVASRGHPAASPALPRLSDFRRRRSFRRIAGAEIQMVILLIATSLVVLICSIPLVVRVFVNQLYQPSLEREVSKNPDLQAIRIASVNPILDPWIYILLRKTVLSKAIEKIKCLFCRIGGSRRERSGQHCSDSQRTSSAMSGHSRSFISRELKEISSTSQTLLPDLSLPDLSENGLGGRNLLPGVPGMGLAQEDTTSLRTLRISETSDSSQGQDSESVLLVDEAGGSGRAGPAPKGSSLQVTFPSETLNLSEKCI
# EP4 [5] = target: T2, EP4; assay: EP4 binding (Ki)
# hEP3A = target: T3, hEP3A (Homo sapiens, UniProt P43115); assay: Other receptors, hEP3A; type: cell-based
# T3 sequence (P43115 1-390): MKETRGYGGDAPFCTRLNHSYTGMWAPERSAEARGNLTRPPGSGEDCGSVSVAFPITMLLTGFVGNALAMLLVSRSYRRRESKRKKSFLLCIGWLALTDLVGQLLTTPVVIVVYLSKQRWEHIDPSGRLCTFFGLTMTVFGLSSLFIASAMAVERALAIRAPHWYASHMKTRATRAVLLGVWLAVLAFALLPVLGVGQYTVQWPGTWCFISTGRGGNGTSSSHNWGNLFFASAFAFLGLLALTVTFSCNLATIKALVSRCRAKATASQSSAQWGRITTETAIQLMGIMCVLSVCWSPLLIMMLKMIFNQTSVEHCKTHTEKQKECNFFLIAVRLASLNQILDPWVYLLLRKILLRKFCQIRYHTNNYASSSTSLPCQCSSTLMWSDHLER
# hDP = target: T4, hDP (Homo sapiens, UniProt Q13258); assay: Other receptors, hDP; type: cell-based
# T4 sequence (Q13258 1-359): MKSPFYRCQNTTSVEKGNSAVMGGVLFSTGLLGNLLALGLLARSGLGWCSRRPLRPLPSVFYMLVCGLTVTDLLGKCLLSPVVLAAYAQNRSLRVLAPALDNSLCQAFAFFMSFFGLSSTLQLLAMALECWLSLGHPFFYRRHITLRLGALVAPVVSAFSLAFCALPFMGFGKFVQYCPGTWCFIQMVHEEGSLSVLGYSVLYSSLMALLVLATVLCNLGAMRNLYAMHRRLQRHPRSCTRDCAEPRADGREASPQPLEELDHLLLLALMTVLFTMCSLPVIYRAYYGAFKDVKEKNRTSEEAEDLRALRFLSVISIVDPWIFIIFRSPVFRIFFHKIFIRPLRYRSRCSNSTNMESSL
compound,measurement,setting,value
CCCCCCc1ccc(N2C(=O)CC[C@@H]2CCCc2ccc(C(=O)OC(C)C)s2)cc1 [(S)-5-(3-(1-(4-hexylphenyl)-5-oxopyrrolidin-2-yl)propyl)thiophene-2-carboxylic acid isopropyl ester],maximum ocular surface hyperemia (OSH) score,"normotensive dogs; once daily for 4 days, at 28 h",0.7
"CCCCCCc1ccc(N2C(=O)CC[C@@H]2CCCc2ccc(C(=O)OCCO)s2)cc1 [Compound 3, (S)-5-(3-(1-(4-hexylphenyl)-5-oxopyrrolidin-2-yl)propyl)thiophene-2-carboxylic acid 2-hydroxyethyl ester]",maximum ocular surface hyperemia (OSH) score,"normotensive dogs; once daily for 5 days, at 74 h",1.1
"CCCCCCc1ccc(N2C(=O)CC[C@@H]2CCCc2ccc(C(=O)O)s2)cc1 [Compound 9, (S)-5-(3-(1-(4-hexylphenyl)-5-oxopyrrolidin-2-yl)propyl)thiophene-2-carboxylic acid]",maximum ocular surface hyperemia (OSH) score,"normotensive dogs; once daily for 5 days, at 76 h",1.9
same,EC50,EP2 [1],5 nM
same,EC50,EP2 [2],0.5 nM
same,Ki,EP2 [3],3 nM
same,EC50,EP4 [4],11300 nM
same,Ki,EP4 [5],2610 nM
same,EC50,hEP3A,1550 nM
same,EC50,hDP,389 nM
